# Results reported in patent publication US6486171B2, “Piperidine compounds” (Les Laboratoires Servier, priority 1999, dated 2002).
# Counter-ions that a name gives are not always drawn.
# Columns and labels:
# [1] = test system: marble-burying behaviour of mice; test: Marble-burying test in mice; format: in vivo; settings: male NMRI mice, 30 minutes' exploration
# Source text: This test enables evaluation of the capacity of pharmacological agents to inhibit the spontaneous marble-burying behaviour of mice, the inhibition being predictive of antidepressant and/or anti-impulsive action. Male mice of the NMRI strain (Iffa-Credo, 1'Arbresle, France) weighing from 20 to 25 g on the day of the experiment are placed individually in Macrolon boxes (30×18×19 cm) containing 5 cm of sawdust and covered with a perforated plexiglass plate. Twenty four “tiger's eye” glass marbles are evenly distributed on the sawdust at the periphery of the box. At the end of 30 minutes' free exploration, the animals are removed from the box and the number of buried marbles is counted.
# serotonin reuptake sites = biological target: T1, serotonin reuptake sites (Rattus norvegicus, UniProt P31652); test: Affinity for serotonin reuptake sites, [3H]-paroxetine competition; format: binding; settings: rat frontal cortex membranes, read-out: pKi, serotonin reuptake sites (converted)
# T1 construct: The membranes are prepared from rat frontal cortex; from tissue; host or cells: rat frontal cortex membranes
# Protocol: The affinity was determined by competition experiments using [^3H]-paroxetine (NEN, Les Ulis, France). The membranes are prepared from rat frontal cortex and are incubated in triplicate for 2 hours at 25° C. with 1.0 nM [^3H]-paroxetine and cold ligand in a final volume of 0.4 ml. The incubation buffer contains […] TRIS-HCl (pH 7.4), 120 mM NaCl and 5 mM KCl. The non-specific binding is determined using 10 μM citalopram. At the end of the incubation, the incubation medium is filtered and washed three times with 5 ml of cooled buffer. The radioactivity retained on the filters is determined by liquid scintillation counting. The binding isotherms are analysed by non-linear regression to determine the IC50 values. Those values are converted into a dissociation constant (Ki) using the Cheng-Prusoff equation: […]
# wherein L is the concentration of [^3H]-paroxetine and Kd is the dissociation constant of [^3H]-paroxetine from the serotonin reuptake site (0.13 nM). The results are expressed in pKi.
# 5-HT1A receptors = biological target: T2, 5-HT1A receptors (Homo sapiens, UniProt P08908); test: Affinity for 5-HT1A receptors, [3H]-8-OH-DPAT competition; format: binding; settings: membranes from CHO cells transfected with 5HT1A receptor, read-out: pKi, 5-HT1A receptor (converted)
# T2 construct: expressed in transfected cells; host or cells: CHO cells
# T2 sequence (P08908 1-422): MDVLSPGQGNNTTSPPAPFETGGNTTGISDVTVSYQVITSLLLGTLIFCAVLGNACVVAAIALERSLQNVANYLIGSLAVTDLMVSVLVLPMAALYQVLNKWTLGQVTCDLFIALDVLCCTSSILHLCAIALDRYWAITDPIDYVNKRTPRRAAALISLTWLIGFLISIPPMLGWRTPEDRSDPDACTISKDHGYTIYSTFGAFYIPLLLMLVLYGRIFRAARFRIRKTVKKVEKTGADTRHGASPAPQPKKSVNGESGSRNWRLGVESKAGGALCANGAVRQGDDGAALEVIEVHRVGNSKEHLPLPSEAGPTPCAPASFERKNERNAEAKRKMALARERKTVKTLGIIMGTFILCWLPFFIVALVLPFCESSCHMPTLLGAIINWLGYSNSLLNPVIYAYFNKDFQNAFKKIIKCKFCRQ
# Protocol: The affinity was determined by competition experiments using [^3H]-8-OH-DPAT (NEN, Les Ulis, France). The membranes, prepared from CHO cells transfected with 5HT1A receptor, were prepared as described in Neuropharmacol., 1997, 36, 451-459. The membranes were incubated in triplicate for two and a half hours at 25° C. with 0.4 nM [^3H]-8-OH-DPAT and cold ligand in a final volume of 1.0 ml. The incubation buffer contains 50 mM HEPES-NaOH (pH 7.4) and 5 mM MgCl2. The non-specific binding is determined using 10 μM 5-HT. At the end of the incubation, the incubation medium is filtered through filters impregnated with 0.1% polyethyleneimine and washed three times with 5 ml of cooled buffer. The radioactivity retained on the filters is determined by liquid scintillation counting. The binding isotherms are analysed by non-linear regression to determine the IC50 values. Those values are converted into a dissociation constant (Ki) using the Cheng-Prusoff equation: […]
# wherein L is the concentration of [^3H]-8-OH-DPAT and Kd is the dissociation constant of [^3H]-8-OH-DPAT from the 5HT1A receptor (0.65 nM). The results are expressed in pKi.
# serotonin level = test: Microdialysis experiment in the rat (frontal cortex); format: in vivo; settings: 10 mg/kg subcutaneously, cingulate frontal cortex dialysate
# Protocol: Rats are anaesthetised with pentobarbital (60 mg/kg i.p.). They are placed in a Kopf stereotactic device and the cannula guide is implanted in the cingulate frontal cortex in accordance with the coordinates described in the Paxinos and Watson atlas (1982) as follows: AP=+2.2; L=±0.6; DV=−0.2. The rats are placed in separate cages and are not used in dialysis until 5 days later. […] The probe is perfused at a flow rate of 1 μl/min. with a solution of 147.2 mM NaCl, 4 mM KCl and 2.3 mM CaCl2 adjusted to pH 7.3 with a phosphate buffer (0.1 M). Two hours after implantation, samples are collected every 20 minutes for 4 hours. Three baseline samples are taken before administration of the products to be tested. The rats are left in their individual cages for the whole of the experiment. When the experiment is finished, the rats are decapitated and the brain is removed and frozen in isopentane. […]
# The simultaneous quantification of dopamine, norepinephrine and serotonin is carried out as follows: 20 μl dialysis samples are each diluted with 20 μl of mobile phase (NaH2PO4: 75 mM; EDTA: 20 μM; sodium 1-decanesulphonate: 1 mM; methanol: 17.5%; triethylamine: 0.01%; pH: 5.7) and 33 μl samples are analysed by HPLC using a reverse phase column thermostatically maintained at 45° C. and quantified by means of a coulometric detector. […]
# [2] = test system: aggressiveness in isolated mice; test: Test of aggressiveness in isolated mice; format: in vivo; settings: male CD mice, treatment 30 minutes before test
# Source text: This test allows the evaluation of the intraspecies anti-aggressive activity of a product in mice that have been kept in isolation for several months. The test uses male CD mice (Charles River) weighing from 22 to 25 g. On their arrival, the animals are isolated in individual opaque black cages (23×14×13 cm) with a grill lid, and are housed for a prolonged period (approximately six months) in the experimentation room. The selection of aggressive pairs of mice that will be used for an extended period in the study commences after the animals have been isolated for one month. Once or twice per week a mouse from another cage (intruder) is placed in the cage of a (resident) mouse and the two animals are observed to see if they attack one another (sniffing, pursuing, nibbling, biting) during that trial. At the end of the trial (maximum duration 10 minutes), each mouse is isolated again in its own cage. If attacks have occurred, the same pair will be tested again in the next trial; if there have been no attacks, each mouse of that pair will be placed in the presence of another mouse in the subsequent trial. Thus, in the course of successive trials carried out at a rate of 1 or 2 per week, definitive pairs of mice that will be used for the experiments are selected. […] The latent period (in seconds) of the first attack and the number and total duration (in seconds) of the attacks are recorded. […]
# T1 sequence (P31652 whole entry): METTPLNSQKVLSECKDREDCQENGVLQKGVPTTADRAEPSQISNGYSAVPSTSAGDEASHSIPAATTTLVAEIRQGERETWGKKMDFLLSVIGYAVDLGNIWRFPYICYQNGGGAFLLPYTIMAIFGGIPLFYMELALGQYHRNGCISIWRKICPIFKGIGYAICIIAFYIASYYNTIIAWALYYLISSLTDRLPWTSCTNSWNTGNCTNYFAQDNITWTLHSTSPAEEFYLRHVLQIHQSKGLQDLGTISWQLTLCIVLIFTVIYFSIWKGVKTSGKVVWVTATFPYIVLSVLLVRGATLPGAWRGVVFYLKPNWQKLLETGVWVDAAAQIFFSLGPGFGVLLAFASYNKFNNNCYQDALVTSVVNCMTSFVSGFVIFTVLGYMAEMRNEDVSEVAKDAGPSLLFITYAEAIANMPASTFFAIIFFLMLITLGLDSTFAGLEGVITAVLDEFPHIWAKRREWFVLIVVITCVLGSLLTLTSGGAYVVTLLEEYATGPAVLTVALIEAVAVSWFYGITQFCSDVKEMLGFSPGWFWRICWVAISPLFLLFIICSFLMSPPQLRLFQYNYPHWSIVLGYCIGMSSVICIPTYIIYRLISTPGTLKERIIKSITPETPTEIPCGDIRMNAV
compound,measurement,setting,value
"CNCCC(Oc1ccc(C(F)(F)F)cc1)c1ccccc1 (centres unmarked) [fluoxetine, reference compound]","Marble-burying in mice, ID50",[1],8.03 mg/kg s.c.
"c1cc2occc2c(N2CCN(CCc3ccc4c(c3)CCO4)CC2)n1 [Example 11, 4-{4-[2-(2,3-Dihydrobenzofuran-5-yl)ethyl]-1-piperazinyl}furo[3,2-c]pyridine]","Marble-burying in mice, ID50",[1],0.94 mg/kg s.c.
"c1ccc2cc(CCN3CCN(c4nccc5ccoc45)CC3)ccc2c1 (as salt: fumarate) [Example 30, 7-{4-[2-(2-Naphthyl)ethyl]-1-piperazinyl}furo[2,3-c]pyridine]",melting point,,175 to 181 °C
"c1ccc2c(CCN3CCC(c4nccc5occc45)CC3)cccc2c1 [Example 7, 4-{1-[2-(1-Naphthyl)ethyl]-4-piperidinyl}furo[3,2-c]pyridine]",Ki,serotonin reuptake sites,< 31.6 nM
same,Ki,5-HT1A receptors,< 31.6 nM
same,increase of the level of serotonin (maximum % of the effect compared with the baseline level defined as 0%),serotonin level,140.5±15.2%
same,"Inhibitory Dose 50, aggressiveness in isolated mice",[2],less than 1.5 mg/kg i.p.
same,"Marble-burying in mice, ID50",[1],1.64 mg/kg s.c.
